Patent US20070142462A1, “Method of Treating Cancer” (The University of Utah, priority 2000, published 2007)

Legend:
Assay type in all cases: cell-based, human
[1] = system: M1619 cells; experiment: Apoptosis by TdT fluorescein end-labeling (FragEL); conditions: 3000 U/ml catalase for 24 hours; vs DNase-treated positive control
Procedure: Measurement of Cytotoxicity and Apoptosis. To assess for cytotoxicity, near confluent cells cultured in 24 well plates were exposed to antioxidants or withdrawn from serum for 24 hours. Medium was removed, and replaced with Dulbecco=s phosphate buffered saline (DPBS) containing 0.1% trypan blue. […] To assess for apoptosis, cells grown on glass slides were treated with antioxidants for 24 hours. Apoptosis was studied by terminal deoxynucleotidyl transferase (TdT) dependent 3′BOH fluorescein end-labeling of DNA fragments, using a Fluorescein-FragEL™ DNA fragmentation detection kit (Oncogene Research Products, Cambridge, Mass.). DNase-treated fixed cells were used as a positive control.
Apoptosis was studied by terminal deoxynucleotidyl transferase (TdT) dependent 3′BOH fluorescein end-labeling of DNA fragments, using a Fluorescein-FragE™ DNA fragmentation detection kit (Oncogene Research Products).

[2] = system: cyclin B1 and p34-cdc2 kinase; experiment: Immunoblot of cyclins, cyclin-associated kinases, inhibitors, p53; conditions: M1619
Procedure: (§1) The effect of antioxidants on expression of cell cyclins, cyclin-associated kinases, cell cycle inhibitors and IκBα was studied by incubating near confluent cell cultures with antioxidant treatments for 15 min-48 hours. Cells were lysed and protein levels were measured by immunoblot assay as described below. In other experiments, the ratio of phosphorylated-IκBα to total IκBα was determined by harvest of cytosolic protein 24 hours after treating cultures with 3,000 U/ml catalase.
Immunoassay for Proteins. Cells were lysed and proteins were isolated and quantitated by immunoassay as previously detailed, using 2 μg/ml of primary rabbit polyclonal antibodies against human p53, the cyclins D1, E, A and B1, the cyclin-associated kinases cdk2 and cdc2, the cyclin kinase inhibitors p21^WAF1/Cip1 and p27, and peroxidase-labeled donkey polyclonal anti-rabbit IgG. […] Cells were placed on ice, washed twice with cold DPBS, scraped into 0.5 ml boiling buffer (10% [vol/vol] glycerol and 2% [wt/vol] sodium dodecyl sulfate [SDS] in 83 mM Tris, pH 6.8) and sheared by four passages through a pipette. Aliquots were removed for protein determination, using the BCA protein assay (Pierce). […] Immunoblots were rinsed again as above and detected using an enhanced chemiluminescence method (ECL Western blotting detection system, Amersham Life Science, Buckinghamshire, England) and autoradiography. […]

[3] = system: NF-κB; experiment: EMSA of constitutive nuclear NF-κB DNA binding, M1619; conditions: 24 hours, catalase 3,000 U/ml, NAC 20 mM, Ebselen 25 μM, dicumarol 250 μM
Excerpt: Electrophoretic Mobility Shift Assays (EMSAs). […] J. Respir.

[4] = system: phosphorylated IκBα (IκBα-P); experiment: Immunoassay for phosphorylated IκBα; conditions: M1619; catalase 3,000 U/ml for 24 hours
Procedure: as §1
The NF-κB inhibitor IκBα and phosphorylated IκBα were assayed with several modifications of the above procedure. Cells were lysed in boiling buffer to which 50 mM DTT had been added as a reducing agent. Immunoassay of IκBα. proceeded as above, but samples for measurement of phosphorylated IκBα were blocked 2 hours at room temperature and incubated overnight at 4° C. with primary phospho-specific antibodies diluted 1:1000 in PBS with 0.1% Tween and 5% BSA.
M1619 cells either treated with catalase with 3,000 U/ml for 24 hours or untreated were used in immunoassays for phosphorylated IκBα (IκBα-P) using phospho-specific antibody as described above.
Mean ratios of the densitometrically determined sum intensities of IκBα-P staining in the immunoassay experiments are shown in FIG. 5B.

Catalase
Induction of apoptosis [1]: did not induce apoptosis
expression of cyclin B1 and its associated kinase p34-cdc2 ([2]; 3,000 U/ml catalase): significant decrease
protein levels of cyclins D1, E, A, cdk2, p53, p21WAF1/Cip1, p27 ([2]; catalase-treated vs controls, data not shown): did not decrease
constitutive NF-κB DNA binding activity in nuclear protein [3]: substantially reduced
amount of IκBα that is phosphorylated [4]: decreases
